Where two headings read alike, the source gives them in different places. Where no end group is shown, it is not given here.
Columns and labels:
E. faecalis ATCC 29212 = format: cell-based, Enterococcus faecalis
Protocol: (§1) Natural extracts derived from hemocytes and hemolymph of P. clarkii were liophylized and then resuspended in ultrapure water to obtain a protein content of 22 µg/mL and 1400 µg/mL, respectively. MIC values of extracts were determined by a micro-method previously described based on serial dilution 1:2 of the extracts, using Mueller Hinton II medium and Sabouraud medium (for C. albicans), in 96-well microplates and starting from concentrations of 50% v/v to 1.5 % v/v in a final volume equal to 100 μL. Thus, 10 μL of microbial suspension (5 × 10^6 CFU/ mL) obtained from a bacterial culture grown at 37 °C for 24 h on Tryptic Soy Agar (TSA) in 5 mL of 0.9% NaCl, with a turbidity equivalent to a 0.5 McFarland standard was added to 96-well plates and incubated at 37 °C for 24 h. MICs of extracts were determined by a microplate reader (GloMax®-Multi Detection System, Promega Italia s.r.l, Milan, Italy) with the lowest concentration of the sample whose optical density (OD) at 570 nm was similar to negative control wells (broth without inoculum to control the sterility of medium). Moreover, a positive growth control (bacterial tested strain in the medium without extracts to compare the growth of cells with samples) and a sample control (extract solutions without inoculum to control the absorbance of the samples at different concentrations) were also added.
(§2) The same methods and media were used to determine the antimicrobial activity of synthetic peptides #3, #5, #7, and #14, and derivatives. They were dissolved in ultrapure water, or 1 mL ultrapure water with 40 μL NH4OH (28% v/v) in the case of peptide #14, to obtain a stock solution of 5 mg/mL. Working solutions of 250 μg/mL were prepared for each peptide in MHII or Sabouraud, and test solutions in a 96 wells plate were obtained by diluting in a series 1:2. Each assay was performed in triplicate.

E. coli ATCC 25922 = format: cell-based, Escherichia coli
Protocol: as §1, §2

C. albicans ATCC 10231 [1] = format: cell-based, Candida albicans; conditions: ATCC 10231, 24 h
Protocol: Sub-MIC concentrations were tested for their ability to interfere with the growth as sessile community of S. aureus ATCC 25923, P. aeruginosa ATCC 15442, and C. albicans ATCC 10231, as previously described. Bacterial strains or the fungal strain were incubated in test tubes with TSB or Sabouraud (5 mL) containing 2% w/v glucose at 37 °C for 24 h. After that, small aliquots (2.5 μL) from the diluted microbial suspensions whose turbidity was equivalent to a 0.5 McFarland standard were added to each well of a polystyrene sterile flat-bottom 96-well plate filled with TSB or BS (200 μL) with 2% w/v glucose. Sub-MIC concentration values of amino acidic fraction from hemocytes and hemolymph of P. clarkii or of chemically synthesized peptides were directly added to the wells and the plates were incubated at 37 °C for 24 h. After biofilm growth, samples were washed twice with sterile 0.9% NaCl and stained with 200 μL of 0.1% w/v crystal violet solution for 15 min at 37 °C [58]. Excess solution was discarded, and the plate was washed twice using tap water. […] Last, the absorbance was determined at 600 nm using a microplate reader (GloMax®-Multi Detection System, Promega Italia s.r.l, Milan, Italy). […] The percentage of inhibition was calculated through the formula:% Inhibition = [(OD growth − OD sample)/OD growth control] × 100. […]

C. albicans ATCC 10231 [2] = assay: Overproduction of reactive oxygen species (DCFH-DA); format: cell-based, Candida albicans; conditions: 25 and 20 μg/mL
Protocol: The ROS overproduction in C. albicans ATCC 10231 due to peptide #14d was evaluated using the method described by Bezerra et al., with some modifications. C. albicans ATCC 10231 was incubated with peptide #14d in the same conditions reported for biofilm inhibition formation. Then, the formed biofilm was washed with 0.9% NaCl three times to remove the Sabouraud liquid medium. After this procedure, 20 μL of 2′,7′ dichlorofluorescein diacetate (DCFH-DA) was added to each well and the plate was incubated in the dark for 30 min at 25 °C. DCFH-DA is oxidized by ROS to dichlorofluorescein, which emits green fluorescence. Lastly, the biofilms were washed with 0.9% NaCl three times and observed with a fluorescence microscope with an excitation wavelength of 488 nm and emission wavelength of 525 nm.

[3] = test system: C. albicans ATCC 10231 biofilm; assay: Scanning electron microscopy of biofilm morphology; format: cell-based, Candida albicans; conditions: 25 μg/mL (sub-MIC), 24 h, versus control
Protocol: The morphological changes in C. albicans ATCC 10231 cells were assessed by scanning electron microscopy (SEM, Phenom ProX, PhenomWorld, Eindhoven, Netherlands), using the method described by Bezerra et al., with some modifications. Biofilms were fixed with a 4% formaldehyde solution in DPBS for 30 min at 37 °C. Then, the biofilms were washed three times with sodium phosphate buffer (pH = 7.4). Next, samples were dehydrated with increased ethanol concentrations (30%, 50%, 70%, and 100%) for 10 min at 24 °C. Lastly, the final dehydration was conducted with […] (HDMS) for 10 min, removing the solvent at the end of washing to allow the samples to air dry. The samples were analyzed by scanning electron microscopy (SEM, Phenom ProX, PhenomWorld).

C. albicans ATCC 10231 [4] = assay: Cell membrane integrity, propidium iodide uptake; format: cell-based, Candida albicans; conditions: 25, 20 and 15 μg/mL (sub-MIC), 24 h
Protocol: The cell membrane integrity of C. albicans ATCC 10231 after exposure to peptide #14d was evaluated using the PI uptake assay, as described by Bezerra et al., with some modifications. C. albicans ATCC 10231 was incubated with the peptide #14d in the same conditions reported for inhibition of biofilm formation. Thus, 20 μL of propidium iodide (PI, Molecular probes^TM, Fisher Scientific, Erembodegem, Belgium) was added to each well and the plate was incubated in the dark for 30 min at 25 °C. Then, the plate was washed three times with 0.9% NaCl and observed with an Olympus FV1200 confocal microscope with TIRF (Total internal reflection fluorescence) integrated, using an excitation wavelength of 535 nm and emission wavelength of 617 nm.

S. aureus ATCC 25923 = format: cell-based, Staphylococcus aureus
Protocol: as §1, §2

C. albicans ATCC 10231 [5] = format: cell-based, Candida albicans
Protocol: as §1, §2

P. aeruginosa ATCC 15442 = format: cell-based, Pseudomonas aeruginosa
Protocol: as §1, §2

selected strains = assay: EC50 under low-salt conditions (viable count); format: cell-based; conditions: 10 mM sodium phosphate buffer, 100-0.15 μg/mL, 3 h 37 °C, CFU count, maximum tested 100 μg/mL
Protocol: The antimicrobial activity of the chemically synthesized peptides #3, #5, #7, and #14, and their derivatives, against selected strains were evaluated in terms of peptide half-maximal effective concentration to inhibit 50% of the viable bacteria (EC50), as reported by other authors. Briefly, 5 × 10^4 CFU per well of tested microorganisms were incubated with peptide concentrations from 100 to 0.15 μg/mL (1:2 serial dilutions) for 3 h at 37 °C in 100 μL of 10 mM sterile sodium phosphate buffer. After 3 h, 10 μL of each dilution was spotted in triplicate on Tryptic Soy Agar plates and incubated at 37 °C for 24 h. After the incubation time, the number of colonies from any sample were counted and compared with the CFU viable count of the none-treated growth control.

[6] = synthetic peptides, E. faecalis ATCC 29212, maximum tested 250 μg/mL, 1:2 dilutions, MHII, 37 °C 24 h, triplicate
[7] = synthetic peptides, E. coli ATCC 25922, maximum tested 250 μg/mL, 1:2 dilutions, MHII, 37 °C 24 h, triplicate
[8] = synthetic peptides, S. aureus ATCC 25923, maximum tested 250 μg/mL, 1:2 dilutions, MHII, 37 °C 24 h, triplicate
[9] = synthetic peptides, P. aeruginosa ATCC 15442, maximum tested 250 μg/mL, 1:2 dilutions, MHII, 37 °C 24 h, triplicate

Sequence	MIC (E. faecalis ATCC 29212; ATCC 29212, 24 h) [µg/mL]	MIC (E. coli ATCC 25922; ATCC 25922, 24 h) [µg/mL]	BIC50 (biofilm inhibition concentration) (C. albicans ATCC 10231 [1]) [µg/mL]	minimal fungicidal concentration (MFC) (C. albicans) [µg/mL]	ROS overproduction (DCFH-DA fluorescence) (C. albicans ATCC 10231 [2])	biofilm morphology by SEM [3]	membrane integrity (PI uptake, red fluorescence) (C. albicans ATCC 10231 [4])	MIC (S. aureus ATCC 25923; ATCC 25923, 24 h) [µg/mL]	MIC (C. albicans ATCC 10231 [5]; ATCC 10231, 24 h) [µg/mL]	MIC (P. aeruginosa ATCC 15442; ATCC 15442, 24 h) [µg/mL]	EC50 (concentration to inhibit 50% of the viable bacteria) (selected strains) [µg/mL]	MIC (E. faecalis ATCC 29212; [6]) [µg/mL]	MIC (E. coli ATCC 25922; [7]) [µg/mL]	MIC (S. aureus ATCC 25923; [8]) [µg/mL]	MIC (P. aeruginosa ATCC 15442; [9]) [µg/mL]	MIC (C. albicans ATCC 10231 [5]; synthetic peptides, C. albicans ATCC 10231, maximum tested 250 μg/mL, 1:2 dilutions, Sabouraud, 37 °C 24 h, triplicate) [µg/mL]
FHLVWRAGGTF [Peptide #14d]	> 250	> 250	23.2	62.5	did not induce ROS overproduction	evident variations in the morphology, inducing wrinkles and scars	damaged the cell membrane and induced an increase in red fluorescence intensity	> 250	31.2	> 250						
FSLVNAVDQTT [Peptide #14]	> 250	> 250						> 250	> 250	> 250	> 100					
IIIRKGRW [Peptide #3d]	> 250	> 250						> 250		> 250						
NNWTGADCKAATLK [Peptide #5]	> 250	> 250						> 250	> 250	> 250	> 100					
NWWTGARCKAATLK [Peptide #5d, synthetic derivative of natural peptide #5]												> 250	> 250	> 250	> 250	
SSGYGGYGGGRF [Peptide #3]											> 100	> 250	> 250	> 250	> 250	> 250
YGGYFGNR [Peptide #7]	> 250	> 250						> 250	> 250	> 250	> 100					

Reference: PMC9774249, “A Novel Peptide with Antifungal Activity from Red Swamp Crayfish Procambarus clarkii” (Antibiotics, 2022)
